{"source": "the PolyMetriX glass transition set", "note": "± gives the standard deviation of the reports."}
{"units": {"glass transition temperature": "°C"}}
{"smiles": "*c1ccc2c(c1)C(=O)N(c1ccc(Cc3ccc(N4C(=O)c5ccc(C(*)(C(F)(F)F)C(F)(F)F)cc5C4=O)cc3)cc1)C2=O", "note": "(repeat unit)", "glass transition temperature": 297.00}
{"smiles": "*Oc1c(C)cc(-c2cc(CBr)c(Oc3ccc(C(=O)c4ccc(*)cc4)cc3)c(CBr)c2)cc1CBr", "note": "(repeat unit)", "glass transition temperature": 163.67}
{"smiles": "*CCCCCCOP(=O)(/N=N/c1ccc(CCOC(=O)c2cc(C(=O)OCCc3ccc(/N=N/P(=O)(O*)OC)cc3)cc(C(C)(C)C)c2)cc1)OC", "note": "(repeat unit)", "glass transition temperature": 47.00}
{"smiles": "*C1C2CC(CCCCc3ccccc3)C(C2)C1*", "note": "(repeat unit)", "glass transition temperature": 148.00}
{"smiles": "*Oc1ccc(CNC(=O)c2ccc(C(=O)NCc3ccc(OC4COC5C(*)COC45)cc3)cc2)cc1", "note": "(repeat unit)", "glass transition temperature": 122.00}
{"smiles": "*CCC[Si](*)(C)O[Si](C)(C)CCCOc1ccc(C#N)cc1", "note": "(repeat unit)", "glass transition temperature": -45.50}
{"smiles": "*C(=O)Nc1ccc(C(c2ccc(NC(=O)c3ccc4c(c3)C(=O)N(c3c(C)cc(-c5cc(C)c(N6C(=O)c7ccc(*)cc7C6=O)c6ccccc56)c5ccccc35)C4=O)cc2)(C(F)(F)F)C(F)(F)F)cc1", "note": "(repeat unit)", "glass transition temperature": 250.00}
{"smiles": "*C(F)(F)C(*)(F)Cl", "note": "(repeat unit) [Poly(chlorotrifluoroethylene)]", "glass transition temperature": "69.47 ± 25"}
{"smiles": "*c1ccc(C(=O)c2ccc(Oc3ccc(-c4nn(*)c(=O)c5ccccc45)c(F)c3)cc2)cc1", "note": "(repeat unit)", "glass transition temperature": 253.00}
{"smiles": "*C(=O)Oc1ccc(OC(=O)c2ccc3c(c2)C(=O)N(c2ccc(Oc4ccc(N5C(=O)c6ccc(*)cc6C5=O)cc4)cc2)C3=O)c(-c2ccccc2)c1", "note": "(repeat unit)", "glass transition temperature": 212.00}
{"smiles": "*OC(C)C(*)=O", "note": "(repeat unit) [poly(l - lactic acid)]", "glass transition temperature": "51.4 ± 43"}
{"smiles": "*c1ccc2c(c1)Sc1cc(-c3ccc(-c4ccc(*)s4)s3)ccc1N2CCCCCCCCCC", "note": "(repeat unit)", "glass transition temperature": 142.00}
{"smiles": "*c1ccc(-c2cc(-c3ccc(-c4ccccc4)cc3)cc(-c3ccc(N4C(=O)c5ccc(NC(=O)Nc6cccc(NC(=O)Nc7ccc8c(c7)C(=O)N(*)C8=O)n6)cc5C4=O)cc3)n2)cc1", "note": "(repeat unit)", "glass transition temperature": 248.00}
{"smiles": "*C(=O)Nc1ccc(Oc2ccc(NC(=O)c3ccc4c(c3)C(=O)N(c3ccc(Oc5ccc(N6C(=O)c7ccc(*)cc7C6=O)cc5-c5ccccc5)c(-c5ccccc5)c3)C4=O)cc2)cc1", "note": "(repeat unit)", "glass transition temperature": 345.00}
{"smiles": "*CC(*)(CC(=O)Oc1ccc(OCCCCCCC)cc1)C(=O)Oc1ccc(OCCCCCCC)cc1", "note": "(repeat unit)", "glass transition temperature": 111.00}
{"smiles": "*C(=O)Nc1cccc(C(=O)Nc2cccc(NC(=O)c3ccc4[nH]c(-c5ccc(-c6nc7cc(*)ccc7[nH]6)cc5)nc4c3)c2)c1", "note": "(repeat unit)", "glass transition temperature": 312.00}
{"smiles": "*Oc1ccc(C2(c3ccc(OC(*)=O)cc3)c3cc(N(C)C)ccc3-c3ccc([N+](=O)[O-])cc32)cc1", "note": "(repeat unit)", "glass transition temperature": 278.00}
{"smiles": "*CC(=O)Nc1ccc(C2(c3ccc(NC(=O)c4ccc5c(c4)C(=O)N(*)C5=O)cc3)c3ccccc3-c3ccccc32)cc1", "note": "(repeat unit)", "glass transition temperature": 345.00}
{"smiles": "*c1ccc(Oc2ccc(C(=O)c3cccc(C(=O)c4ccc(Oc5ccc(-c6cc(*)[nH]n6)cc5)cc4)c3)cc2)cc1", "note": "(repeat unit)", "glass transition temperature": 205.00}
{"smiles": "*Nc1c(-c2ccccc2)cc(-c2ccc(-c3cc(-c4ccccc4)c(NC(=O)c4ccc(C(*)=O)cc4)c(-c4ccccc4)c3)cc2)cc1-c1ccccc1", "note": "(repeat unit)", "glass transition temperature": 135.00}
{"smiles": "*CC(OCCCC)C(C(=O)OC)C(*)C(=O)OC", "note": "(repeat unit)", "glass transition temperature": 32.50}
{"smiles": "*Oc1ccc(Oc2ccc(NC(=O)c3ccc(Oc4ccc(Oc5ccc(C(=O)Nc6ccc(*)cc6)cc5)cc4C)cc3)cc2)cc1", "note": "(repeat unit)", "glass transition temperature": 200.00}
{"smiles": "*CCCCOC(=O)Nc1ccc(-c2ccc(NC(=O)OCCCCn3c4ccccc4c4cc(/C=C(\\C#N)C(=O)OCCCCCCOC(=O)/C(C#N)=C/c5ccc6c(c5)c5ccccc5n6*)ccc43)c(C)c2)cc1C", "note": "(repeat unit)", "glass transition temperature": 113.00}
{"smiles": "*CCCN(*)C(=O)c1ccccc1", "note": "(repeat unit)", "glass transition temperature": 72.00}
{"smiles": "*Oc1c(-c2ccccc2)cc(*)cc1-c1ccccc1", "note": "(repeat unit)", "glass transition temperature": 220.00}
{"smiles": "*Oc1ccc(NC(=O)c2ccc(Oc3ccc(C(C)(C)c4ccc(C(C)(C)c5ccc(Oc6ccc(C(=O)Nc7ccc(Oc8ccc(C(C)(C)c9ccc(*)cc9)cc8)cc7)cc6)cc5)cc4)cc3)cc2)cc1", "note": "(repeat unit)", "glass transition temperature": 163.00}
{"smiles": "*CC(c1ccccc1)C1C(=O)N(CCCN(CC)c2ccc(/N=N/c3ccc([N+](=O)[O-])cc3Cl)c(C)c2)C(=O)C1*", "note": "(repeat unit)", "glass transition temperature": 149.00}
{"smiles": "*c1ccc(N2C(=O)c3ccc(C(c4ccc5c(c4)C(=O)N(c4ccc(N6C(=O)c7ccc(-c8ccc9c(c8)C(=O)N(*)C9=O)cc7C6=O)cc4)C5=O)(C(F)(F)F)C(F)(F)F)cc3C2=O)cc1", "note": "(repeat unit)", "glass transition temperature": 342.00}
{"smiles": "*Oc1ccc(S(=O)(=O)c2ccc(Oc3cc(C)c(C(c4cc(C(C)C)c(*)cc4C)c4ccccc4C(=O)O)cc3C(C)C)cc2)cc1", "note": "(repeat unit)", "glass transition temperature": 240.00}
{"smiles": "*Oc1ccc(Oc2ccc(C(=O)Nc3ccc(Oc4ccc(S(=O)(=O)c5ccc(Oc6ccc(NC(=O)c7ccc(*)cc7)cc6)cc5)cc4)cc3)cc2)cc1C", "note": "(repeat unit)", "glass transition temperature": 217.00}
{"smiles": "*CC(*)c1cccc(B(O[Si](C)(C)C)O[Si](C)(C)C)c1", "note": "(repeat unit)", "glass transition temperature": 35.00}
{"smiles": "*CCOCCOC(=O)c1ccccc1C(=O)O*", "note": "(repeat unit)", "glass transition temperature": -50.00}
{"smiles": "*CCCCCCCCNC(=O)Cc1ccc(CC(=O)N*)cc1", "note": "(repeat unit)", "glass transition temperature": 110.00}
{"smiles": "*CC(COCCCC)O*", "note": "(repeat unit)", "glass transition temperature": -79.00}
{"smiles": "*CC(*)Cc1ccccc1C", "note": "(repeat unit)", "glass transition temperature": 80.00}
{"smiles": "*Oc1ccc(CC(NC(=O)CCc2ccc(OC(=O)CCCC(*)=O)cc2)C(=O)OC(C)C)cc1", "note": "(repeat unit)", "glass transition temperature": 68.00}
{"smiles": "*Oc1ccc(C2(c3ccc(OC(=O)CCC(*)=O)cc3)c3cc(N(C)C)ccc3-c3ccc([N+](=O)[O-])cc32)cc1", "note": "(repeat unit)", "glass transition temperature": 215.00}
{"smiles": "*CCCCCCc1ccc(-c2c(-c3ccccc3)cc(-c3cccc(-c4cc(-c5ccccc5)c(-c5ccc(*)cc5)c(-c5ccccc5)c4-c4ccccc4)c3)c(-c3ccccc3)c2-c2ccccc2)cc1", "note": "(repeat unit)", "glass transition temperature": 215.00}
{"smiles": "*c1ccc(-c2ccc(C3(*)CCCCC3)cc2)cc1", "note": "(repeat unit)", "glass transition temperature": 287.00}
{"smiles": "*Nc1cc(NC(=O)c2cccc(C(*)=O)c2)cc(-c2nnc(-c3ccccn3)o2)c1", "note": "(repeat unit)", "glass transition temperature": 155.00}
{"smiles": "*Oc1ccc(Nc2ccc(C(=O)c3ccc(C(=O)c4ccc(Nc5ccc(*)cc5)cc4)cc3)cc2)cc1", "note": "(repeat unit)", "glass transition temperature": 215.00}
{"smiles": "*/C=C/c1ccc2c(c1)C(CCCCCC)(CCCCCC)c1cc(/C=C/c3nc(*)c(C#N)c(/C=C/c4ccc(N(c5ccccc5)c5ccccc5)cc4)c3C#N)ccc1-2", "note": "(repeat unit)", "glass transition temperature": 178.00}
{"smiles": "*CCCC1(CCCNC(=O)CCCCC(=O)N*)c2ccccc2-c2ccccc21", "note": "(repeat unit)", "glass transition temperature": 120.00}
{"smiles": "*C(=O)Oc1ccc(OC(=O)c2ccc3c(c2)C(=O)N(c2ccc(Oc4ccc(N5C(=O)c6ccc(*)cc6C5=O)cc4)cc2)C3=O)cc1", "note": "(repeat unit)", "glass transition temperature": 270.00}
{"smiles": "*c1ccc(Oc2ccc(-n3c(=O)c4cc5c(=O)n(-c6ccc(Oc7ccc(-c8nc9cc%10sc(*)nc%10cc9s8)cc7)cc6)c(=O)c5cc4c3=O)cc2)cc1", "note": "(repeat unit)", "glass transition temperature": 400.00}
{"smiles": "*CC(*)c1ccc(COCCC(F)(F)C(F)(F)C(F)(F)C(F)(F)C(F)(F)C(F)(F)F)cc1", "note": "(repeat unit)", "glass transition temperature": 18.00}
{"smiles": "*C(=O)NCCNC(=O)c1ncn(C)c1*", "note": "(repeat unit)", "glass transition temperature": 189.00}
{"smiles": "*Oc1ccc(C2(c3ccc(Oc4ccc(C(=O)Oc5ccc(C6(c7ccc(OC(=O)c8ccc(*)cc8)cc7)CCC(c7ccccc7)CC6)cc5)cc4)cc3)CCC(C(C)(C)C)CC2)cc1", "note": "(repeat unit)", "glass transition temperature": 172.00}
{"smiles": "*C(=O)Nc1ccc(Oc2ccc(C(C)(C)c3ccc(Oc4ccc(NC(=O)c5ccc(N6C(=O)c7ccc(*)cc7C6=O)cc5)cc4)cc3)cc2)cc1", "note": "(repeat unit)", "glass transition temperature": 216.00}
{"smiles": "*CC(COC)O*", "note": "(repeat unit) [Poly(3-methoxypropylene oxide) ]", "glass transition temperature": "-62 ± 1.2"}
{"smiles": "*c1cccc(C(O)c2cccc(N3C(=O)c4ccc(Oc5ccc6c(c5)C(=O)N(*)C6=O)cc4C3=O)c2)c1", "note": "(repeat unit)", "glass transition temperature": 252.00}
{"smiles": "*CCCCCCOc1ccc(C(=O)OC(=O)c2ccc(O*)cc2)cc1", "note": "(repeat unit)", "glass transition temperature": 47.00}
{"smiles": "*c1ccc2c(c1)C(=O)N(c1ccc(C(=O)Nc3ccc(Oc4ccc(C(c5ccc(Oc6ccc(NC(=O)c7ccc(N8C(=O)c9ccc(C(*)(C(F)(F)F)C(F)(F)F)cc9C8=O)cc7)cc6)cc5)(C(F)(F)F)C(F)(F)F)cc4)cc3)cc1)C2=O", "note": "(repeat unit)", "glass transition temperature": 293.00}
{"smiles": "*Oc1ccc(CC(NC(=O)CCc2ccc(OC(=O)CCCCCCC(*)=O)cc2)C(=O)OC(C)CC)cc1", "note": "(repeat unit)", "glass transition temperature": 46.00}
{"smiles": "*CCN(CCN1C(=O)c2ccc(C(c3ccc4c(c3)C(=O)N(*)C4=O)(C(F)(F)F)C(F)(F)F)cc2C1=O)c1ccc(/C=C/C2=CC(=C(C#N)C#N)CC(C)(C)C2)cc1", "note": "(repeat unit)", "glass transition temperature": 224.00}
{"smiles": "*OC1CCC(OC(*)=O)CC1", "note": "(repeat unit)", "glass transition temperature": 138.00}
{"smiles": "*CCCCCCCNC(=O)c1ccc(C(=O)N*)cc1", "note": "(repeat unit)", "glass transition temperature": 160.00}
{"smiles": "*CCCCCOC(=O)c1ccccc1C(=O)[O][Cd][O]C(=O)c1ccccc1C(=O)OCCCCCOC(=O)Nc1ccc(C)c(NC(=O)O*)c1", "note": "(repeat unit)", "glass transition temperature": 2.30}
{"smiles": "*CCCCCOC(=O)Nc1ccc(C)c(NC(=O)O*)c1", "note": "(repeat unit)", "glass transition temperature": 52.00}
{"smiles": "*CC(*)C(=O)OCF", "note": "(repeat unit)", "glass transition temperature": 15.00}
{"smiles": "*Oc1c(C)cc(*)cc1-c1ccccc1", "note": "(repeat unit)", "glass transition temperature": 180.00}
